The values below come from patent US11142515B2, “Pyrazolyl-ureas as kinase inhibitors” (RESPIVERT LIMITED, priority 2014, dated 2021).

SMILES strings stand for the structures.

The target in data set [1] is T1, p38MAPKγ (MAPK12) (Homo sapiens, UniProt P53778).
T1 construct: purchased Life Technologies
T1 sequence (P53778 1-367): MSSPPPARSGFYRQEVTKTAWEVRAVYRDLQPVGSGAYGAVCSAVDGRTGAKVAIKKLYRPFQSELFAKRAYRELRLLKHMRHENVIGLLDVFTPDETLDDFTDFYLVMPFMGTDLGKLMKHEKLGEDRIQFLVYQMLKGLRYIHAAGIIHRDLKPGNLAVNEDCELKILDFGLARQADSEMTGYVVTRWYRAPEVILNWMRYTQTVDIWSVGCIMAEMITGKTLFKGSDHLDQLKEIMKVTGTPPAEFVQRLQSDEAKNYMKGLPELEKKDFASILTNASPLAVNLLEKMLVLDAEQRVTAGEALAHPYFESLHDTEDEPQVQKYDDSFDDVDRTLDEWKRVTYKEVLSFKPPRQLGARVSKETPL
Briefly: p38 MAPKγ enzyme inhibition (Z-LYTE FRET). It is filed as biochemical. Particulars: Table 2A; read-out: IC50 Values for Enzyme Inhibition p38 MAPKγ. Summed up:
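Enzyme (added at 800 ng/mL) was preincubated 2 h at RT with compound (solutions of 40 to 0.0012 μg/mL), then FRET peptide (8 μM) and ATP (400 μM), both as added, were reacted 1 h at RT. Protease development followed for 1 h; phosphorylation was read as the coumarin/fluorescein emission ratio.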

Data set [2] has as its target T2, c-Src (Homo sapiens, UniProt P12931).
T2 construct: purchased Life Technologies
Briefly: c-Src enzyme inhibition (Z-LYTE FRET). The format is biochemical. The settings on record: Table 2A. Summed up: (§1)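 Z-LYTE readout: coumarin-to-fluorescein ratio after 1 h protease cleavage of unphosphorylated peptide. Kinase reactions ran 1 h at RT with ATP stock at 800 μM (c-Src) or 60 μM (Hck, Syk), following 2 h compound preincubation over 0.0012–40 μg/mL; enzyme stocks 1000/1400/2000 ng/mL.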

The target of data set [3] is T3, Hck (Homo sapiens, UniProt P08631).
T3 construct: purchased Life Technologies
T3 sequence (P08631 22-526): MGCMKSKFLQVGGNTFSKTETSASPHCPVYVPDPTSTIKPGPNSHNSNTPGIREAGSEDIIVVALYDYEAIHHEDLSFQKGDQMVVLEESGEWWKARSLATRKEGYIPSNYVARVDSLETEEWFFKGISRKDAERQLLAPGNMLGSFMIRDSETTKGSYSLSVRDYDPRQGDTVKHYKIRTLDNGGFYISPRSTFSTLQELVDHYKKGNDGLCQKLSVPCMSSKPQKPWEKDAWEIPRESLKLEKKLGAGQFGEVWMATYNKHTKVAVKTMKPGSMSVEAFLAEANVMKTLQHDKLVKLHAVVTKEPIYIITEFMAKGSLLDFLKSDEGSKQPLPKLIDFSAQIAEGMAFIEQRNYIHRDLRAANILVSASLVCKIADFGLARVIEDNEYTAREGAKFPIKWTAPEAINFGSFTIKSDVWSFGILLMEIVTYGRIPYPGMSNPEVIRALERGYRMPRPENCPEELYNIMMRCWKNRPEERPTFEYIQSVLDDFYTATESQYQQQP
Put plainly: Hck enzyme inhibition (Z-LYTE FRET). It is filed as biochemical. Particulars: Table 2A. Summed up:
as §1

Data set [4] deals with ICAM-1 expression in BEAS2B cells. Put plainly: Poly I:C-induced ICAM-1 expression in BEAS2B cells. The format is cell-based. The settings on record: Homo sapiens, BEAS-2B, read-out: PolyIC/ICAM1 IC50 (BEAS2B). Summed up:
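ICAM-1 readout: cell-based ELISA at 18 h post-transfection, OD450-655 divided by crystal violet OD595 per well. Stimulus was Oligofectamine-delivered Poly I:C (1 μg/mL) as RNA-virus mimic in BEAS2B cells, with compound added 2 h beforehand. Percent inhibition versus vehicle.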

For data set [5], the system named is d-U937 cells. Briefly: Cell viability: MTT assay in differentiated U937 cells. The format is cell-based, human. Particulars: 10 μg/mL. Summed up: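 Viability loss, calculated against 0.5% DMSO vehicle (gains reported negative), was measured by MTT reduction (1 h) and A550 after DMSO solubilisation. Compound exposure of d-U937 cells was 10 μg/mL final, for 24 h in 10% FCS or 4 h in 5% FCS RPMI1640.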
On the technique in general: Formazan colour is commonly taken as a measure of viable cells.

In data set [6] the target is T4, Syk (Homo sapiens, UniProt P43405).
T4 construct: purchased Life Technologies
Put plainly: Syk enzyme inhibition (Z-LYTE FRET). It is filed as biochemical. The settings on record: Table 2A. Summed up: as §1

T2 sequence (P12931 whole entry): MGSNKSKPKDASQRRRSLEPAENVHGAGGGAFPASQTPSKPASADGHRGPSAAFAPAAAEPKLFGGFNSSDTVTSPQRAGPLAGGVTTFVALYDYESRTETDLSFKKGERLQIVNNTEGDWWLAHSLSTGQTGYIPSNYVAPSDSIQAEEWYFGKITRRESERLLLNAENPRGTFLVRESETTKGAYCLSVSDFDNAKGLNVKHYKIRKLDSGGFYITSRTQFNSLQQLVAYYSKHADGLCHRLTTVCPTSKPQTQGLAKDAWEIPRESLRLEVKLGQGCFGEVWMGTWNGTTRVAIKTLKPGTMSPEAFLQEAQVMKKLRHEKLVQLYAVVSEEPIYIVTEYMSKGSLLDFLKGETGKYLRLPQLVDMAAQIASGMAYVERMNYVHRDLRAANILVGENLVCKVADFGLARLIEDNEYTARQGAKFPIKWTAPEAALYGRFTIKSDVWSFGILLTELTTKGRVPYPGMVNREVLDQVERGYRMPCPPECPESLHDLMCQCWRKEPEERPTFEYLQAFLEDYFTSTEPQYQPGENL

On to `COc1ccc(-n2nc(C(C)(C)C)cc2NC(=O)Nc2ccc(OCc3ccnc(Nc4cncc(C5CC5)n4)c3)c3ccccc23)cc1` [Example 22], for which the IC50 worked out at 377 nM in data set [1]; 27 nM in data set [2]; 14 nM in data set [3]; 19.6 nM in data set [4]; 6700 nM in data set [6]. The “MTT Assay Cell viability at time point indicated in d-U937 Cells, 4 h” value (“MTT Assay Cell viability … in d-U937 Cells, 4 h” below) in data set [5] is “− (−ve and +ve indicate the value is below and above, respectively, the no significant effect threshold defined as 30% inhibition at 10 μg/mL at the time point indicated)”. Also, in data set [5], the “MTT Assay Cell viability at time point indicated in d-U937 Cells, 24 h” value (“MTT Assay Cell viability … 24 h” for short) was “− (−ve and +ve indicate the value is below and above, respectively, the no significant effect threshold defined as 30% inhibition at 10 μg/mL at the time point indicated)”.
For the compound `COc1ccc(-n2nc(C(C)(C)C)cc2NC(=O)Nc2ccc(OCc3ccnc(Nc4cnc(CO)cn4)c3)c3ccccc23)cc1` [Example 23], the IC50 in data set [1] is 209 nM; in data set [2], 33 nM; in data set [3], 13 nM; in data set [4], 33.5 nM; in data set [6], 2150 nM. The “MTT Assay Cell viability … in d-U937 Cells, 4 h” value in data set [5] is “− (−ve and +ve indicate the value is below and above, respectively, the no significant effect threshold defined as 30% inhibition at 10 μg/mL at the time point indicated)”. In addition, the “MTT Assay Cell viability … 24 h” value in data set [5] is “+ (−ve and +ve indicate the value is below and above, respectively, the no significant effect threshold defined as 30% inhibition at 10 μg/mL at the time point indicated)”.
Regarding `Cc1ccc(-n2nc(C(C)(C)C)cc2NC(=O)Nc2ccc(OCc3ccnc(Nc4cncc(C5CC5)n4)c3)c3ccccc23)s1` [Example 24], the IC50 in data set [1] stood at 334 nM; in data set [2], 42 nM; in data set [3], 18 nM; in data set [4], 55.1 nM; in data set [6] it was 8830 nM. Also, the “MTT Assay Cell viability … in d-U937 Cells, 4 h” value in data set [5] is “− (−ve and +ve indicate the value is below and above, respectively, the no significant effect threshold defined as 30% inhibition at 10 μg/mL at the time point indicated)”. In addition, the “MTT Assay Cell viability … 24 h” value in data set [5] is “− (−ve and +ve indicate the value is below and above, respectively, the no significant effect threshold defined as 30% inhibition at 10 μg/mL at the time point indicated)”.
For `CC(C)(C)c1cc(NC(=O)Nc2ccc(OCc3ccnc(Nc4cncc(C5CC5)n4)c3)c3ccccc23)n(-c2ccc(CO)cc2)n1` [Example 25], the IC50 came to 49 nM in data set [1]; 10 nM in data set [2]; 5 nM in data set [3]; 13.1 nM in data set [4]; 2220 nM in data set [6]. The “MTT Assay Cell viability … in d-U937 Cells, 4 h” value in data set [5] is “− (−ve and +ve indicate the value is below and above, respectively, the no significant effect threshold defined as 30% inhibition at 10 μg/mL at the time point indicated)”. In addition, the “MTT Assay Cell viability … 24 h” value in data set [5] was “+ (−ve and +ve indicate the value is below and above, respectively, the no significant effect threshold defined as 30% inhibition at 10 μg/mL at the time point indicated)”.
Take `Cc1ccc(-n2nc(C(C)(C)C)cc2NC(=O)Nc2ccc(OCc3ccnc(Nc4cnc(CO)cn4)c3)c3ccccc23)s1` [Example 26]: the IC50 in data set [1] is 74 nM; in data set [2] it was 56 nM; in data set [3], 20 nM; in data set [4], 973 nM; in data set [6] it was 1580 nM. In addition, the “MTT Assay Cell viability … in d-U937 Cells, 4 h” value in data set [5] is “− (−ve and +ve indicate the value is below and above, respectively, the no significant effect threshold defined as 30% inhibition at 10 μg/mL at the time point indicated)”. In addition, the “MTT Assay Cell viability … 24 h” value in data set [5] was “+ (−ve and +ve indicate the value is below and above, respectively, the no significant effect threshold defined as 30% inhibition at 10 μg/mL at the time point indicated)”.
